Measurements from article PMC7026885, “Macrofilaricidal Benzimidazole–Benzoxaborole Hybrids as an Approach to the Treatment of River Blindness: Part 1. Amide Linked Analogs” (ACS Infectious Diseases, 2019).

Tests used:
[1] = tested on: Onchocerca volvulus L3 larvae; assay: Onchocerca volvulus L3 larval molting assay; format: cell-based; details: O. volvulus, 1 μM
Experimental: (§1) The first three analogs from the benzimidazole 5-carboxylic acid, namely 7a (from 6-aminobenzoxaborole), 8a (from 6-aminomethyl-3,3-dimethylbenzoxaborole), and 8b (from 3-aminomethylbenzoxaborole), were prepared and tested in an Onchocerca volvulus L3 larval molting assay[34],[35] and a mammalian G2/M arrest assay[36] to evaluate antifilarial activity and selectivity, respectively (Table 1). O. volvulus is the causative agent of river blindness, and the L3 molting assay is the only widely available and reproducible assay of this filariid, the target of novel macrofilaricidal drugs.[34],[35] Other animal models (e.g., Brugia in gerbils) recapitulate aspects of lymphatic filariasis and are also used as surrogate screens for O. volvulus infections. Of the three compounds tested, 8a emerged as the most attractive compound on the basis of potency and selectivity.
Plates were incubated at 37 °C in a 5% CO2 incubator for 6 days, then molting was assessed visually using an inverted microscope. Molting was determined in each well by counting the presence of fourth stage larvae (L4s) and empty casts of L3s.
The percent inhibition of molting was calculated based on the number of treated larvae that were able to molt in comparison to the number of control larvae that had successfully molted. IC50 values were calculated using GraphPad Prism v6.0
(http://www.graphpad.com). See Bullman et al., PLoS Negl. Trop.
Adult Brugia malayi transplantation in vivo model procedure.
Gerbils (Meriones unguiculatus) were infected by transplantation of 10 male and 10 female adult Brugia malayi into the peritoneal cavity. Gerbils were acclimated for 7 days prior to treatment. Animals were dosed based on their body weight prior to each dosing. Animals were administered their doses at the same time each day and receive standard rodent laboratory diet and water ad libitum. Gerbils were humanely euthanized at the conclusion of each study. Peritoneal counts of male and female adult B. malayi and visual condition of the peritoneum were recorded.
Brugia pahangi L3 injection in vivo model procedure 8.
Male gerbils (Meriones unguiculatus) approximately 6 weeks of age (50-60 g) were purchased from Charles Rivers (USA, Kingston K62 Gerbils) and infected by intraperitoneal injection with 200 Brugia pahangi third-stage larvae (L3) per animal
(Filariatech, Inc., Athens, GA). Gerbils were housed with no more than 5 animals per cage and maintained 9 months prior to treatment. All gerbils were dosed in accordance with their body weight determined prior to each dosing. Animals were […]

[2] = tested on: G2/M arrest (functional indicator of interaction with mammalian tubulin); assay: mammalian G2/M arrest assay; format: cell-based; details: Table 3; read-out: G2/M IC50
Experimental: as §1
Similarly, changing the point of attachment on the benzoxaborole core from 6- to 5- to afford 8d was also accompanied by increased potency in both the O. volvulus and G2/M arrest assays.

[3] = MDR1-MDCK monolayer permeability assay; format: in vitro ADME; details: dog
Experimental: We characterized the in vitro ADME properties of 8a in preparation for evaluation of this compound in our primary in vivo model in gerbils. […] We were pleased to find that 8a was able to kill 100% of both male and female worms in the gerbil peritoneum when dosed subcutaneously at 100 mg/kg/day for 14 days as a suspension in a nonsolubilizing HEC/Tween vehicle. […] The subsequent assessment of the pharmacokinetics of 8a from these two dosing paradigms provided an interesting observation that we believe to be important in understanding the PK–PD requirements for achieving efficacy in this animal model. […] We had made the same observation in a positive control group using flubendazole at a subcutaneous dose of 10 mg/kg/day for 5 days in the nonsolubilizing HEC/Tween vehicle, namely, that plasma levels of flubendazole were maintained above the in vitro IC50 (4 nM) for over 42 days, consistent with data reported in the literature.[43] […] We next examined 8a in two additional in vivo models, the first where L3 B. pahangi larvae were injected into the peritoneum of gerbils and allowed to develop into adult worms[45] and a second where gerbils were naturally infected by the filarial nematode Litomosoides sigmodontis.[46],[47] In both of these models, 8a was administered subcutaneously at 100 mg/kg for 14 days or orally at 100 mg/kg for 28 days as a suspension. […] Additionally, when plasma obtained from treated animals at necropsy was analyzed for 8a, we observed an outcome similar to that observed in the adult implantation model, e.g., that measurable levels were present at this time point in the subcutaneous-dosed groups but not in the orally dosed groups, weeks after administration of the drug. In a final L. sigmodontis experiment with 8a, we dosed the compound subcutaneously at 300 mg/kg for 7 days as a suspension.

IC50 [2] | Papp A→B [3] | Compound | inhibition at 1 µM [1]
> 100 µM | 1.2 ×10⁻⁶ cm/s | COC(=O)Nc1nc2cc(C(=O)NCc3ccc4c(c3)B(O)OC4(C)C)ccc2n1C [8e] | 24%
> 100 µM | 1.8 ×10⁻⁶ cm/s | COC(=O)Nc1nc2ccc(C(=O)NCc3ccc4c(c3)B(O)OC4(C)C)cc2n1C [8f] | 29%
4.1 µM | 0.6 ×10⁻⁶ cm/s | COC(=O)Nc1nc2ccc(C(=O)N(C)Cc3ccc4c(c3)B(O)OC4(C)C)cc2[nH]1 [8g] | 
35 µM | 0.14 ×10⁻⁶ cm/s | COC(=O)Nc1nc2ccc(C(=O)N(CCN(C)C)Cc3ccc4c(c3)B(O)OC4(C)C)cc2[nH]1 [8h] | 
16 µM | 2.35 ×10⁻⁶ cm/s | COC(=O)Nc1nc2c(F)c(C(=O)NCc3ccc4c(c3)B(O)OC4(C)C)ccc2[nH]1 [8i] | 0%
